Results on 15 compounds are retold here after ChEMBL document CHEMBL1144798, “New chemotypes for cathepsin K inhibitors” (Bioorg Med Chem Lett, 2008).

Bounds are passed on as bounds.

By IC50 is commonly meant the concentration that inhibits the measured activity by half.

One experiment has as its target T1, Cathepsin K (Homo sapiens, UniProt P43235).
T1 sequence (P43235 whole entry): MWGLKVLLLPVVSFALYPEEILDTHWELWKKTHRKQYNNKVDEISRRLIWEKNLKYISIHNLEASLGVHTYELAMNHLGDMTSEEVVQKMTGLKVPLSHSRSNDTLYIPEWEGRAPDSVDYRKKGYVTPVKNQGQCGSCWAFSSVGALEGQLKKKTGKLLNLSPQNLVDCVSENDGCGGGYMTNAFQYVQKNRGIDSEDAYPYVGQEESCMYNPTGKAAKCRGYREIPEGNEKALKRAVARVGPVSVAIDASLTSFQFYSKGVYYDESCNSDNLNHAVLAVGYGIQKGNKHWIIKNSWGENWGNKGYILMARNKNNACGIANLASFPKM
Description: Inhibition of human recombinant cathepsin K by fluorescence assay.

The next experiment deals with Cathepsin S (Homo sapiens, UniProt P25774). As to the kind of experiment: Inhibition of human recombinant cathepsin S by fluorescence assay.
A further experiment deals with Procathepsin L (Homo sapiens, UniProt P07711). Description: Inhibition of human recombinant cathepsin L by fluorescence assay.
Chain of Procathepsin L (P07711 whole entry): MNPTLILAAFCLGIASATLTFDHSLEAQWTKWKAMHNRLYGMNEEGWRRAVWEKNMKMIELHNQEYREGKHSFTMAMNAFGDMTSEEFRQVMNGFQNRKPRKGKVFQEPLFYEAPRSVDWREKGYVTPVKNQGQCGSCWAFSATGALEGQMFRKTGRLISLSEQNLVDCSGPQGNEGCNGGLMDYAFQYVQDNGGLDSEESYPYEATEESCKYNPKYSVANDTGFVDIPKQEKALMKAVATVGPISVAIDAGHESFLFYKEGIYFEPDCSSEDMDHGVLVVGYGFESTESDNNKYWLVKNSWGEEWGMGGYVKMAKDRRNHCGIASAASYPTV

Chain of Cathepsin S (P25774 whole entry): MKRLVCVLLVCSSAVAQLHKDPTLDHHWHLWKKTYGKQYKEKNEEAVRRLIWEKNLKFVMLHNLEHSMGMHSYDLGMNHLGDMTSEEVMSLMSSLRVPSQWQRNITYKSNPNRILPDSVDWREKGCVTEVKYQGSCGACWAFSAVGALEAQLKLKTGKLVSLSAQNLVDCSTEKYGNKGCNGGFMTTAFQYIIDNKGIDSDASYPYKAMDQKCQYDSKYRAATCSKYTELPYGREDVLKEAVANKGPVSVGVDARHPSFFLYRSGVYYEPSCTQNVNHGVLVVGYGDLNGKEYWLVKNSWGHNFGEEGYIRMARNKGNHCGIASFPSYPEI

For `CC(C)(C)CN(Cc1ccc(C#CCN2CCCCC2)cc1)c1ccnc(C#N)n1`, the IC50 is 7.3 nM on Cathepsin K, above 1000 nM on Cathepsin S and above 1000 nM at Procathepsin L.

For the compound `CC(C)(C)CN(Cc1ccc(I)cc1)c1ccnc(C#N)n1`, the figures for the IC50 on Cathepsin K, on Cathepsin S and on Procathepsin L were 19 nM, above 1000 nM and above 1000 nM, respectively.

Regarding `CC(C)(C)CNc1nc(C#N)ncc1C#CCN1CCc2ccccc2C1`, the IC50 stood at 3.2 nM at Cathepsin K, 840 nM on Cathepsin S and 150 nM on Procathepsin L.

For `CC(C)(C)CN(Cc1ccc(C#CCN2CCC(N3CCCCC3)CC2)cc1)c1ccnc(C#N)n1`, the results for the IC50 on Cathepsin K, on Cathepsin S and at Procathepsin L were 3.6 nM, above 1000 nM and above 1000 nM, respectively.

As to `CC(C)(C)CNc1nc(C#N)ncc1C#CCN1Cc2ccccc2C1`, the IC50 on Cathepsin K is 10 nM; on Cathepsin S, 920 nM; on Procathepsin L, above 1000 nM.

On to `COc1ccc(S(=O)(=O)N2CCN(CC#Cc3cnc(C#N)nc3NCC(C)(C)C)CC2)cc1`, for which the values for the IC50 at Cathepsin K, at Cathepsin S and on Procathepsin L were 7.1 nM, above 1000 nM and above 1000 nM, respectively.

As for `CN1CCN(c2ccc(CC#Cc3cnc(C#N)nc3NCC(C)(C)C)cc2)CC1`, the results for the IC50 on Cathepsin K, on Cathepsin S and at Procathepsin L were 7.1 nM, 760 nM and 980 nM, respectively.

With `CC(=O)N1CCN(CC#Cc2ccc(CN(CC(C)(C)C)c3ccnc(C#N)n3)cc2)CC1`, the IC50 was 6.4 nM at Cathepsin K, above 1000 nM on Cathepsin S and above 1000 nM at Procathepsin L.

Turning to `CC(C)(C)CNc1nc(C#N)ncc1C#CCn1cnc(Cl)c1Cl`, the IC50 came out at 7.2 nM at Cathepsin K, 68 nM on Cathepsin S and 190 nM at Procathepsin L.

Consider `CC(C)(C)CN(Cc1ccccc1)c1ccnc(C#N)n1`, for which the IC50 at Cathepsin K was 69 nM; at Cathepsin S it was above 1000 nM; on Procathepsin L, above 1000 nM.

`CC(C)(C)CNc1nc(C#N)ncc1C#CCN1CCN(S(=O)(=O)CCCCl)CC1`: the IC50 on Cathepsin K is 3.7 nM; at Cathepsin S, 800 nM; on Procathepsin L, above 1000 nM.

With `CC(C)(C)CN(Cc1ccc(Cn2cncn2)cc1)c1ccnc(C#N)n1`, the IC50 on Cathepsin K was 4.8 nM; at Cathepsin S, above 1000 nM; on Procathepsin L, above 1000 nM.

As for `CC(C)(C)CN(Cc1ccc(C#CCn2cncn2)cc1)c1ccnc(C#N)n1`, the IC50 on Cathepsin K is 8.6 nM; on Cathepsin S, above 1000 nM; on Procathepsin L it was above 1000 nM.

Regarding `CN1CCN(CC#Cc2ccc(CN(CC(C)(C)C)c3ccnc(C#N)n3)cc2)CC1`, the IC50 was 3.8 nM at Cathepsin K, above 1000 nM on Cathepsin S and above 1000 nM on Procathepsin L.

For `CC(C)(C)CNc1nc(C#N)ncc1C#CCOc1cccnc1`, the IC50 on Cathepsin K was 8.6 nM; at Cathepsin S it was 460 nM; at Procathepsin L, 1000 nM.
